Test results as given in ChEMBL document CHEMBL1201862, “PubChem BioAssay data set” (2004).
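These data come from cells grown in 96-well plates and exposed to compound for 48 hours at five concentrations. At the GI50, growth is halved.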 The source made the active and inactive calls. Cut-off read from the data, not from the text of the source: active = GI50 up to about 1.1 µM and inactive = higher.

Key:
Assay in all cases: DTP human tumour cell line panel, 48 h
[1] = system: Malme-3M
[2] = system: U-251
[3] = system: EKVX
[4] = system: KM12
[5] = system: CCRF-CEM
[6] = system: A549
[7] = system: SR
[8] = system: NCI-H460
[9] = system: BT-549
[10] = system: LOX IMVI
[11] = system: NCI/ADR-RES
[12] = system: DU-145
[13] = system: SF-295
[14] = system: MDA-N
[15] = system: RPMI-8226
[16] = system: HT-29
[17] = system: RXF 393
[18] = system: MDA-MB-435
[19] = system: OVCAR-4
[20] = system: SNB-75
[21] = system: NCI-H522
[22] = system: NCI-H226
[23] = system: MOLT-4
[24] = system: SF-268
[25] = system: SNB-19
[26] = system: COLO 205
[27] = system: K562
[28] = system: UACC-62
[29] = system: SF-539
[30] = system: M14
[31] = system: OVCAR-8
[32] = system: HL-60
[33] = system: SN12C
[34] = system: SK-MEL-2
[35] = system: ACHN
[36] = system: HCC 2998
[37] = system: MDA-MB-231
[38] = system: HCT-15
[39] = system: IGROV-1
[40] = system: HOP-62
[41] = system: OVCAR-3
[42] = system: HOP-92
[43] = system: PC-3
[44] = system: SK-MEL-5
[45] = system: SW-620
[46] = system: CAKI-1
[47] = system: 786-0
[48] = system: A498
[49] = system: SK-MEL-28
[50] = system: SK-OV-3
[51] = system: HCT-116
[52] = system: NCI-H23
[53] = system: TK-10
[54] = system: T47D
[55] = system: Hs-578T
[56] = system: MCF7
[57] = system: OVCAR-5
[58] = system: UACC-257
[59] = system: UO-31

Cc1cc(S(=O)(=O)/N=C(\NN)NCC(=O)NN)c(S)cc1Cl
GI50 [1]: > 10 µM (inactive)
GI50 [2]: > 10 µM (inactive)
GI50 [3]: > 10 µM (inactive)
GI50 [4]: > 10 µM (inactive)
GI50 [5]: > 10 µM (inactive)
GI50 [6]: > 10 µM (inactive)
GI50 [7]: > 10 µM (inactive)
GI50 [8]: > 10 µM (inactive)
GI50 [9]: > 10 µM (inactive)
GI50 [10]: > 10 µM (inactive)
GI50 [11]: > 10 µM (inactive)
GI50 [12]: > 10 µM (inactive)
GI50 [13]: > 10 µM (inactive)
GI50 [14]: > 10 µM (inactive)
GI50 [15]: > 10 µM (inactive)
GI50 [16]: > 10 µM (inactive)
GI50 [17]: > 10 µM (inactive)
GI50 [18]: > 10 µM (inactive)
GI50 [19]: > 10 µM (inactive)
GI50 [20]: > 10 µM (inactive)
GI50 [21]: > 10 µM (inactive)
GI50 [22]: > 10 µM (inactive)
GI50 [23]: > 10 µM (inactive)
GI50 [24]: > 10 µM (inactive)
GI50 [25]: > 10 µM (inactive)
GI50 [26]: > 10 µM (inactive)
GI50 [27]: > 10 µM (inactive)
GI50 [28]: > 10 µM (inactive)
GI50 [29]: > 10 µM (inactive)
GI50 [30]: > 10 µM (inactive)
GI50 [31]: > 10 µM (inactive)
GI50 [32]: > 10 µM (inactive)
GI50 [33]: > 10 µM (inactive)
GI50 [34]: > 10 µM (inactive)
GI50 [35]: > 10 µM (inactive)
GI50 [36]: 8.73 µM (inactive)
GI50 [37]: > 10 µM (inactive)
GI50 [38]: > 10 µM
GI50 [39]: > 10 µM (inactive)
GI50 [40]: > 10 µM (inactive)
GI50 [41]: > 10 µM (inactive)
GI50 [42]: > 10 µM (inactive)
GI50 [43]: > 10 µM (inactive)
GI50 [44]: 8.85 µM (inactive)
GI50 [45]: > 10 µM (inactive)
GI50 [46]: > 10 µM (inactive)
GI50 [47]: > 10 µM (inactive)
GI50 [48]: > 10 µM (inactive)
GI50 [49]: > 10 µM (inactive)
GI50 [50]: > 10 µM (inactive)
GI50 [51]: > 10 µM (inactive)
GI50 [52]: > 10 µM (inactive)
GI50 [53]: > 10 µM (inactive)
GI50 [54]: > 10 µM (inactive)
GI50 [55]: > 10 µM (inactive)
GI50 [56]: > 10 µM (inactive)
GI50 [57]: > 10 µM (inactive)
GI50 [58]: > 10 µM (inactive)

O=C1NC2CCCCC2N=C1CC(=O)c1ccc(Br)cc1 (stereo not given)
GI50 [1]: > 100 µM (inactive)
GI50 [2]: 20.6 µM (inactive)
GI50 [3]: 17.8 µM (inactive)
GI50 [4]: > 100 µM (inactive)
GI50 [5]: 5.2 µM (inactive)
GI50 [6]: 6 µM (inactive)
GI50 [7]: > 100 µM (inactive)
GI50 [8]: 3.4 µM (inactive)
GI50 [9]: 14.6 µM (inactive)
GI50 [10]: 19.2 µM (inactive)
GI50 [11]: 4.07 µM (inactive)
GI50 [12]: > 100 µM (inactive)
GI50 [13]: 17.9 µM (inactive)
GI50 [14]: > 100 µM (inactive)
GI50 [15]: 2.83 µM (inactive)
GI50 [16]: > 100 µM (inactive)
GI50 [17]: 19.5 µM (inactive)
GI50 [18]: > 100 µM (inactive)
GI50 [21]: 3.05 µM (inactive)
GI50 [22]: 4.22 µM (inactive)
GI50 [23]: 5.61 µM (inactive)
GI50 [24]: 28.6 µM (inactive)
GI50 [25]: > 100 µM (inactive)
GI50 [26]: > 100 µM (inactive)
GI50 [27]: > 100 µM (inactive)
GI50 [28]: 4.57 µM (inactive)
GI50 [29]: 26.8 µM (inactive)
GI50 [30]: > 100 µM (inactive)
GI50 [31]: 4.19 µM (inactive)
GI50 [32]: > 100 µM (inactive)
GI50 [33]: 27.7 µM (inactive)
GI50 [34]: 70.6 µM (inactive)
GI50 [35]: 49.1 µM (inactive)
GI50 [36]: 39 µM (inactive)
GI50 [37]: 16.2 µM (inactive)
GI50 [38]: 29.4 µM
GI50 [59]: 3.86 µM (inactive)
GI50 [39]: 5.22 µM (inactive)
GI50 [40]: 31.8 µM (inactive)
GI50 [41]: > 100 µM (inactive)
GI50 [42]: 10.2 µM (inactive)
GI50 [43]: 32.7 µM (inactive)
GI50 [44]: > 100 µM (inactive)
GI50 [45]: > 100 µM (inactive)
GI50 [46]: > 100 µM (inactive)
GI50 [47]: 64.1 µM (inactive)
GI50 [48]: > 100 µM (inactive)
GI50 [49]: > 100 µM (inactive)
GI50 [50]: 28.2 µM (inactive)
GI50 [51]: 66.2 µM (inactive)
GI50 [52]: > 100 µM (inactive)
GI50 [53]: 74.5 µM (inactive)
GI50 [54]: 3.94 µM (inactive)
GI50 [55]: 4.86 µM (inactive)
GI50 [56]: 18 µM (inactive)
GI50 [57]: > 100 µM (inactive)
GI50 [58]: > 100 µM (inactive)
